# According to ChEMBL document CHEMBL3124840, “Chemical composition of the bark of Tetrapterys mucronata and identification of acetylcholinesterase inhibitory constituents” (J Nat Prod, 2014):
# Molecular target: Acetylcholinesterase (Electrophorus electricus, UniProt O42275)
# Sequence (O42275 whole entry): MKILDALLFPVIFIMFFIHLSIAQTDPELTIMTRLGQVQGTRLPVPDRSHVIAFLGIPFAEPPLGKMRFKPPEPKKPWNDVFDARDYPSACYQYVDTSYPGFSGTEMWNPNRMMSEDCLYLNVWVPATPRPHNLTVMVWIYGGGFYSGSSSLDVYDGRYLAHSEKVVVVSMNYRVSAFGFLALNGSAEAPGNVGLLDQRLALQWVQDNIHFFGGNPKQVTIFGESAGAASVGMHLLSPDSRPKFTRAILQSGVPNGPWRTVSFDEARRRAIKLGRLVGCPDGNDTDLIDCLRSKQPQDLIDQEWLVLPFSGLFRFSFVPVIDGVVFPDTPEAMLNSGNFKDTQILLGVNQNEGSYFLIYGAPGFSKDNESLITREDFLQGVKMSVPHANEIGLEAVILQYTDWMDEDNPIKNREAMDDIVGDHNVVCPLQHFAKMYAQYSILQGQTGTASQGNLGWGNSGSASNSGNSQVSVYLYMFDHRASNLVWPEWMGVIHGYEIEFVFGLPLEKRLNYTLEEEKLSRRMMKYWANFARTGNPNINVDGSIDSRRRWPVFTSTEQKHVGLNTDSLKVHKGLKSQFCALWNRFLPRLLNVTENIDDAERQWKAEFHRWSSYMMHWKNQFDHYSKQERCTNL
# Description: Inhibition of Electric eel AChE assessed as amount of thiocholine released using acetylthiocholine iodide as substrate after 6 mins by Ellman's method
row,Compound,IC50 [µM]
1,CN(C)CCc1c(C(c2c[nH]c3ccccc23)C(O)CO)[nH]c2ccc(O)cc12 (stereo not given),11.7
2,NCCc1c(C(c2c[nH]c3ccccc23)C(O)CO)[nH]c2ccc(O)cc12 (stereo not given),12.7
3,CNCCc1c[nH]c2ccc(OC)cc12,12.5
4,CN(C)CCc1c[nH]c2ccc(O)cc12 [BUFOTENINE],11.4
5,COc1ccc2[nH]cc(CCN(C)C)c2c1 [MEBUFOTENIN],14
